Test results published in patent US9278914B2, “SARMs and method of use thereof” (UNIVERSITY OF TENNESSEE RESEARCH FOUNDATION, priority 2004, dated 2016).
pIC50: −log10 of the molar value.

Columns and labels:
CYP1A2 = CYP1A2 (Homo sapiens (Human), UniProt P05177); assay: In vitro CYP inhibition assay; assay type: biochemical
Procedure: Averages (minus background) and IC50 values were calculated.

finishing pigs = assay: Growth performance and carcass composition of finishing pigs; assay type: in vivo, pig; conditions: for lb FFL: fat free lean; for L side / R side: carcass; for lbs FFL/D: fat free lean gain per day
Description: Pigs were blocked by weight and allotted to one of four treatments with ten replicate pens per treatment. Pigs were housed with one pig per pen in an environmentally controlled finishing barn with 4 ft×4 ft slatted pens.
All animals were fed a corn-soybean meal diet with 1% corn oil. […] Final SARM concentrations were 1, 3, and 10 ppm. All animals were fed their respective diets for the duration of the study.
Pigs were allowed ad libitum access to feed and water. Pigs and feeders were weighed on day 7, 14, 21, and 28 to calculate average daily gain (ADG), average daily feed intake (ADFI), and feed-to-gain ratio (F/G or F:G). Each pen served as an experimental unit for all statistical analysis.
Pigs were slaughtered at the Kansas State University Meats Laboratory at the end of the study for collection of individual carcass data. At 24 hours postmortem, the right side of the carcass was frozen at −40° C. for approximately […]. After freezing, sides were ground once through a grinder equipped with a 19 mm die, then mixed and ground through a second grinder equipped with a 9.5 mm die. A sub sample of ground carcass was then chemically analyzed to determine percentages of crude protein, moisture/dry matter, lipid, and ash. Carcass measurements were done on the left side of the carcass, and a sample of lean and fat was taken from the longissimus at approximately the 10th rib.
The data were analyzed as a randomized complete-block design. Analysis of variance was performed by using the MIXED procedure of SAS. Linear and quadratic contrasts were used to evaluate the effects of increasing the level of the SARM on growth and carcass performance.

Sequence of CYP1A2 (P05177 whole entry): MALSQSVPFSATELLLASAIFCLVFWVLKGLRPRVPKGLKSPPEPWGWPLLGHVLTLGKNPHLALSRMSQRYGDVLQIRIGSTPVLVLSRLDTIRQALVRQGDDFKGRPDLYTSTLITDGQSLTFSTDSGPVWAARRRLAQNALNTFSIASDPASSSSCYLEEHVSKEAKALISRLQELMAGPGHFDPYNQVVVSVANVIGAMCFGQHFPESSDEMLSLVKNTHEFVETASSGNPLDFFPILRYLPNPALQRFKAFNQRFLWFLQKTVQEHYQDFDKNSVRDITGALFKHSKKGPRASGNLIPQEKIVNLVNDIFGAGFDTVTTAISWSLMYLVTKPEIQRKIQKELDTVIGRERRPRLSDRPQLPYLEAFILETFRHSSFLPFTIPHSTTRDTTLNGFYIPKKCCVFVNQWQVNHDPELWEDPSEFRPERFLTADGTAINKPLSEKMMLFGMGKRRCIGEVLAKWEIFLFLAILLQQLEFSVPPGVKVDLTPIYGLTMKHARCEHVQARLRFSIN

`C[C@](O)(COc1ccc(Cl)c(F)c1)C(=O)Nc1ccc(C#N)c(C(F)(F)F)c1` [S-II, (S)-3-(4-chloro-3-fluorophenoxy)-N-(4-cyano-3-(trifluoromethyl)phenyl)-2-hydroxy-2-methylpropanamide] was tested, and the pIC50 (CYP1A2) was < 4.70, the “Carcass Wt” value (finishing pigs; 1 PPM) was 201 and the “Live Wt” value (finishing pigs; 1 PPM) was 289. For the same compound, the “Carcass Wt” value (finishing pigs; 3 PPM) was 200, the “Live Wt” value (finishing pigs; 3 PPM) was 288 and the “Carcass Wt” value (finishing pigs; 10 PPM) was 197. The “Live Wt” value (finishing pigs; 10 PPM) was 281, the “ADFI (average daily feed intake)” value (finishing pigs; Day 0-7, 1 ppm in diet) was 7.56 and the “ADG (average daily gain)” value (finishing pigs; Day 0-7, 1 ppm in diet) was 2.89. For the same compound, the “ADFI (average daily feed intake)” value (finishing pigs; Day 0-7, 3 ppm in diet) was 7.54, the “ADG (average daily gain)” value (finishing pigs; Day 0-7, 3 ppm in diet) was 2.37 and the “ADG (average daily gain)” value (finishing pigs; Day 0-7, 10 ppm in diet) was 2.17. For the same compound, the “ADFI (average daily feed intake)” value (finishing pigs; Day 0-7, 10 ppm in diet, listed as SARM) was 7.4, the “ADG (average daily gain)” value (finishing pigs; Day 0-28 (total), 1 ppm in diet) was 2.74 and the “ADG (average daily gain)” value (finishing pigs; Day 0-28 (total), 3 ppm in diet, listed as SARM) was 2.7. For the same compound, the “ADG (average daily gain)” value (finishing pigs; Day 0-28 (total), 10 ppm in diet, listed as SARM) was 2.5, the “ADFI (average daily feed intake)” value (finishing pigs; Day 0-28, 1 ppm in diet) was 8.28 and the “ADFI (average daily feed intake)” value (finishing pigs; Day 0-28, 3 ppm in diet) was 8.38. The “ADFI (average daily feed intake)” value (finishing pigs; Day 0-28, 10 ppm in diet) was 7.85, the “ADFI (average daily feed intake)” value (finishing pigs; Day 8-14, 1 ppm in diet) was 8.74 and the “ADG (average daily gain)” value (finishing pigs; Day 8-14, 1 ppm in diet) was 2.59. The “ADG (average daily gain)” value (finishing pigs; Day 8-14, 3 ppm in diet) was 2.65, the “ADFI (average daily feed intake)” value (finishing pigs; Day 8-14, 3 ppm in diet, listed as SARM) was 8.5 and the “ADFI (average daily feed intake)” value (finishing pigs; Day 8-14, 10 ppm in diet) was 7.89. For the same compound, the “ADG (average daily gain)” value (finishing pigs; Day 8-14, 10 ppm in diet) was 2.37, the “ADFI (average daily feed intake)” value (finishing pigs; Day 15-21, 1 ppm in diet) was 8.33 and the “ADG (average daily gain)” value (finishing pigs; Day 15-21, 1 ppm in diet) was 2.33. The “ADFI (average daily feed intake)” value (finishing pigs; Day 15-21, 3 ppm in diet) was 8.61, the “ADG (average daily gain)” value (finishing pigs; Day 15-21, 3 ppm in diet) was 2.65 and the “ADFI (average daily feed intake)” value (finishing pigs; Day 15-21, 10 ppm in diet) was 7.78. For the same compound, the “ADG (average daily gain)” value (finishing pigs; Day 15-21, 10 ppm in diet) was 2.43, the “ADFI (average daily feed intake)” value (finishing pigs; Day 22-28, 1 ppm in diet) was 8.51 and the “ADG (average daily gain)” value (finishing pigs; Day 22-28, 1 ppm in diet) was 3.15. The “ADFI (average daily feed intake)” value (finishing pigs; Day 22-28, 3 ppm in diet) was 8.89, the “ADG (average daily gain)” value (finishing pigs; Day 22-28, 3 ppm in diet) was 3.15 and the “ADFI (average daily feed intake)” value (finishing pigs; Day 22-28, 10 ppm in diet) was 8.33. The “ADG (average daily gain)” value (finishing pigs; Day 22-28, 10 ppm in diet) was 3.03, the Gain (finishing pigs; Days 0-7, 1 PPM) was 20.3 and the Gain (finishing pigs; Days 0-7, 3 PPM) was 16.6. For the same compound, the Gain (finishing pigs; Days 0-7, 10 PPM) was 15.2, the Gain (finishing pigs; Days 8-14, 1 PPM) was 18.2 and the Gain (finishing pigs; Days 8-14, 3 PPM) was 18.6. For the same compound, the Gain (finishing pigs; Days 8-14, 10 PPM) was 16.6, the Gain (finishing pigs; Days 15-21, 1 PPM) was 16.3 and the Gain (finishing pigs; Days 15-21, 3 PPM) was 18.5. The Gain (finishing pigs; Days 15-21, 10 PPM) was 17.0, the Gain (finishing pigs; Days 22-28, 1 PPM) was 22.0 and the Gain (finishing pigs; Days 22-28, 3 PPM) was 22.0. For the same compound, the Gain (finishing pigs; Days 22-28, 10 PPM) was 21.2, the “average daily gain (ADG) over the course of the study, trend” value (finishing pigs; FIG. 5A) was “increased” and the “fat free lean gain per day, trend” value (finishing pigs; FIG. 5C) was “increased”. The “ADG for days 21-28, trend” value (finishing pigs; FIG. 5D) was “dramatically increased”, the “improvement in lean percent” value (finishing pigs; SARM-treated pigs vs control) was ≤ 2% and the “improvement in pounds of fat free lean” value (finishing pigs; SARM-treated pigs vs control) was ≤ 2%. The “increase in loin eye area (LEA)” value (finishing pigs; SARM-treated pigs vs control) was ≤ 4%, the 1st rib fat (finishing pigs; Table 6, 1 ppm) was 1.47 in and the 10th rib fat (finishing pigs; Table 6, 1 ppm) was 0.78 in. The Dress (finishing pigs; Table 6, 1 ppm) was 69.6%, the Fat free lean (finishing pigs; Table 6, 1 ppm) was 106.9 lb and the “Heart Wt” value (finishing pigs; Table 6, 1 ppm) was 1.04 lb. For the same compound, the “Kidney Wt” value (finishing pigs; Table 6, 1 ppm) was 1.2 lb, the LEA (finishing pigs; Table 6, 1 ppm) was 7.26 in^2 and the “Last lumbar fat (row head printed only as 'in')” value (finishing pigs; Table 6, 1 ppm) was 0.77 in. For the same compound, the Last rib fat (finishing pigs; Table 6, 1 ppm) was 0.9 in, the Lean (finishing pigs; Table 6, 1 ppm) was 53.2% and the “Liver Wt” value (finishing pigs; Table 6, 1 ppm) was 4.58 lb. For the same compound, the 1st rib fat (finishing pigs; Table 6, 3 ppm) was 1.48 in, the 10th rib fat (finishing pigs; Table 6, 3 ppm) was 0.8 in and the Dress (finishing pigs; Table 6, 3 ppm) was 69.3%. For the same compound, the Fat free lean (finishing pigs; Table 6, 3 ppm) was 105.5 lb, the “Heart Wt” value (finishing pigs; Table 6, 3 ppm) was 1.07 lb and the “Kidney Wt” value (finishing pigs; Table 6, 3 ppm) was 1.18 lb. For the same compound, the LEA (finishing pigs; Table 6, 3 ppm) was 7.22 in^2, the “Last lumbar fat (row head printed only as 'in')” value (finishing pigs; Table 6, 3 ppm) was 0.82 in and the Last rib fat (finishing pigs; Table 6, 3 ppm) was 0.91 in. For the same compound, the Lean (finishing pigs; Table 6, 3 ppm) was 52.9%, the “Liver Wt” value (finishing pigs; Table 6, 3 ppm) was 4.95 lb and the 1st rib fat (finishing pigs; Table 6, 10 ppm) was 1.43 in. It also gave a 10th rib fat (finishing pigs; Table 6, 10 ppm) of 0.74 in, a Dress (finishing pigs; Table 6, 10 ppm) of 70% and a Fat free lean (finishing pigs; Table 6, 10 ppm) of 106.7 lb. The “Heart Wt” value (finishing pigs; Table 6, 10 ppm) was 1.01 lb, the “Kidney Wt” value (finishing pigs; Table 6, 10 ppm) was 1.16 lb and the LEA (finishing pigs; Table 6, 10 ppm) was 7.59 in^2. The “Last lumbar fat (row head printed only as 'in')” value (finishing pigs; Table 6, 10 ppm) was 0.74 in, the Last rib fat (finishing pigs; Table 6, 10 ppm) was 0.86 in and the Lean (finishing pigs; Table 6, 10 ppm) was 54.3%. The “Liver Wt” value (finishing pigs; Table 6, 10 ppm) was 4.84 lb, the 1st rib fat (finishing pigs; Table 7, 1 PPM) was 1.47 and the 10th rib fat (finishing pigs; Table 7, 1 PPM) was 0.780. For the same compound, the Dress % (finishing pigs; Table 7, 1 PPM) was 70%, the “Heart Wt” value (finishing pigs; Table 7, 1 PPM) was 1.04 and the “Kidney Wt” value (finishing pigs; Table 7, 1 PPM) was 1.20. For the same compound, the Last lumbar fat (finishing pigs; Table 7, 1 PPM) was 0.770, the Last rib fat (finishing pigs; Table 7, 1 PPM) was 0.900 and the “Liver Wt” value (finishing pigs; Table 7, 1 PPM) was 4.58. For the same compound, the 1st rib fat (finishing pigs; Table 7, 3 PPM) was 1.48, the 10th rib fat (finishing pigs; Table 7, 3 PPM) was 0.800 and the Dress % (finishing pigs; Table 7, 3 PPM) was 69%. The “Heart Wt” value (finishing pigs; Table 7, 3 PPM) was 1.07, the “Kidney Wt” value (finishing pigs; Table 7, 3 PPM) was 1.18 and the Last lumbar fat (finishing pigs; Table 7, 3 PPM) was 0.815. For the same compound, the Last rib fat (finishing pigs; Table 7, 3 PPM) was 0.905, the “Liver Wt” value (finishing pigs; Table 7, 3 PPM) was 4.95 and the 1st rib fat (finishing pigs; Table 7, 10 PPM) was 1.43. For the same compound, the 10th rib fat (finishing pigs; Table 7, 10 PPM) was 0.735, the Dress % (finishing pigs; Table 7, 10 PPM) was 70% and the “Heart Wt” value (finishing pigs; Table 7, 10 PPM) was 1.01. The “Kidney Wt” value (finishing pigs; Table 7, 10 PPM) was 1.16, the Last lumbar fat (finishing pigs; Table 7, 10 PPM) was 0.740 and the Last rib fat (finishing pigs; Table 7, 10 PPM) was 0.855. For the same compound, the “Liver Wt” value (finishing pigs; Table 7, 10 PPM) was 4.84, the “lb FFL” value (finishing pigs; Table 7, 1 PPM) was 107 lb and the “lb FFL” value (finishing pigs; Table 7, 3 PPM) was 106 lb. For the same compound, the “lb FFL” value (finishing pigs; Table 7, 10 PPM) was 107 lb, the LEA (finishing pigs; Table 7, loin eye area, 1 PPM) was 7.26 and the LEA (finishing pigs; Table 7, loin eye area, 3 PPM) was 7.22. The LEA (finishing pigs; Table 7, loin eye area, 10 PPM) was 7.59, the L side (finishing pigs; 1 PPM) was 98.0 and the R side (finishing pigs; 1 PPM) was 103. For the same compound, the L side (finishing pigs; 3 PPM) was 97.7, the R side (finishing pigs; 3 PPM) was 102 and the L side (finishing pigs; 10 PPM) was 96.8. For the same compound, the R side (finishing pigs; 10 PPM) was 99.8, the “lbs FFL/D” value (finishing pigs; 1 PPM) was 0.822 lbs/D and the “lbs FFL/D” value (finishing pigs; 3 PPM) was 0.774 lbs/D. The “lbs FFL/D” value (finishing pigs; 10 PPM) was 0.814 lbs/D, the “Day 0-7 F:G, effect of treatment” value (finishing pigs; linear contrast) was “significantly increased” and the “Day 8-14 average daily feed intake (ADFI), effect of treatment” value (finishing pigs; linear contrast) was “decreased”. For the same compound, the “carcass crude fat, effect of feeding” value (finishing pigs; pig, in vivo) was “reducing”.
